Drawing on PubChem BioAssay (NCI), this text covers TGI and GI50 for 11 molecules.

Common to all, as to test: growth of human tumour cells (NCI), 48 h
The subject of experiment [1] is M14 melanoma.
Experiment [2] deals with A498 renal.
Experiment [3] relates to K-562 leukemia.
For experiment [4], the system named is PC-3 prostate.
The test system of experiment [5] is UACC-62 melanoma.
The test system of experiment [6] is UO-31 renal.
Experiment [7] deals with OVCAR-4 ovarian.
Experiment [8] deals with MDA-N.
Experiment [9] relates to HS 578T breast.
For experiment [10], the system named is SK-OV-3 ovarian.
Experiment [11] has as its system OVCAR-8 ovarian.
Experiment [12] has as its system U251 CNS.

The structures appear in SMILES notation.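 Dose response: 5 concentrations. Exposure: 48 h. Format: 96-well plates. Endpoint: linear interpolation; highest concentration if not reached. At the GI50, growth is halved. TGI: total growth inhibition.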

For the molecule `CCN(CC)P1(=S)Oc2ccc3ccccc3c2-c2c(ccc3ccccc23)O1`, the TGI in experiment [1], in [2], in experiment [3], in experiment [4], in experiment [5] and in experiment [6] was > 100 µM each time. Further, the TGI in experiment [7], in experiment [8], in [9], in experiment [10], in [11] and in [12] was > 100 µM in each case.

With `COc1ccc(OC)c2c1C[C@@H]1C(C#N)N3[C@H](Cc4c(OC)ccc(OC)c4[C@@H]3C)C(=O)N1[C@H]2C` (stereo not given in full), the TGI was 8.54 µM in experiment [1]; 42.1 µM in [2]; 7.26 µM in [3]; 11.7 µM in [4]; 6.52 µM in experiment [5]; 4.54 µM in experiment [6]. For the same molecule, the TGI in [7] was 16.4 µM; in experiment [8], 22 µM; in experiment [9], > 100 µM; in experiment [10], 29.4 µM; in [11], 9.93 µM; in [12], 4.91 µM.

For `Brc1ccc(-c2ccc(-c3ccc(Br)s3)s2)s1`, the TGI in experiment [1], in [2], in [3], in experiment [4], in experiment [5] and in [6] was > 100 µM in each case. In addition, the TGI in experiment [7], in [8], in experiment [9], in experiment [10], in experiment [11] and in experiment [12] was > 100 µM each time.

For `C[N+](C)(C)CCCCCc1c2nc(c(CCCCC[N+](C)(C)C)c3ccc([nH]3)c(CCCCC[N+](C)(C)C)c3ccc([nH]3)c(CCCCC[N+](C)(C)C)c3nc1C=C3)C=C2`, the TGI in [1], in [2], in experiment [3], in experiment [4], in experiment [5] and in experiment [6] was > 100 µM in each case. The TGI in experiment [7], in experiment [8], in experiment [9], in experiment [10], in experiment [11] and in experiment [12] was > 100 µM each time.

With `CCCCc1cc2c(cc1O)CCC1C2CC[C@@]2(C)C1CC[C@@H]2O` (stereo not given in full), the TGI was 41.7 µM in [1]; 57.2 µM in [2]; 43.6 µM in experiment [3]; 35.3 µM in [4]; 29.5 µM in experiment [5]; 38 µM in experiment [6]. In addition, the TGI in experiment [7] was 37.3 µM; in [8], 51.2 µM; in experiment [9], 43.8 µM; in experiment [10], 37.1 µM; in experiment [11], 43.4 µM; in experiment [12] it was 64.7 µM.

In the case of `COc1ccc(N=NN2CCCC2)cc1`, the TGI in experiment [1], in experiment [2], in [3], in experiment [4], in experiment [5] and in experiment [6] was > 100 µM each time. Moreover, the TGI in experiment [7] was 43.6 µM; in experiment [8], 39.8 µM; in experiment [9], > 100 µM; in [10] it was > 100 µM; in experiment [12] it was > 100 µM.

For the molecule `COc1ccc2c(c1)CCC(CN1CCN(CCOC(c3ccc(F)cc3)c3ccc(F)cc3)CC1)=C2`, the TGI is 27.4 µM in [1]; 48.1 µM in experiment [2]; > 100 µM in experiment [3]; > 100 µM in experiment [4]; 49 µM in experiment [5]; > 100 µM in [7]. For the same molecule, the TGI in experiment [8] was 47.2 µM; in experiment [9] it was 50.7 µM; in experiment [10], > 100 µM; in experiment [11], 63.2 µM; in experiment [12], 42.9 µM.

In the case of `NS(=O)(=O)c1ccc(CNC(=S)NC(=O)Nc2ccc(Cl)c(Cl)c2)cc1`, the TGI amounted to 35.8 µM in experiment [1]; 33.5 µM in experiment [2]; 39.5 µM in [3]; 25.2 µM in experiment [4]; 29.3 µM in experiment [5]; 32.5 µM in experiment [6]. In addition, the TGI in experiment [7] was > 100 µM; in experiment [8] it was 46.4 µM; in [9], 38.1 µM; in [10] it was 52.8 µM; in experiment [11], 53.4 µM; in [12], 26.7 µM.

For `COc1ccc(N(C(=O)OC(C)(C)C)[C@@H]2C(C)=C[C@H]([S@@](=O)c3ccc(C)cc3)[C@@H]3C(=O)N(C)C(=O)[C@@H]32)cc1`, the TGI was > 100 µM in experiment [1]; 29.3 µM in experiment [2]; > 100 µM in experiment [3]; > 100 µM in [4]; 48.4 µM in experiment [5]; 30.1 µM in experiment [6]. Besides, the TGI in experiment [7] stood at 34.2 µM; in experiment [8], 40.8 µM; in experiment [9] it was 42.9 µM; in [10], 30.3 µM; in [11], 46.7 µM; in experiment [12], 31.9 µM.

As for `CC1OC(OC2C(CO)OC(O[C@H]3CC[C@@]4(C)C(=CC[C@H]5[C@@H]6C[C@@H]7O[C@](O)(CC[C@@H](C)COC8OC(CO)C(O)C(O)C8O)[C@@H](C)[C@@H]7[C@@]6(C)CC[C@@H]54)C3)C(OC3OC(C)C(O)C(O)C3O)C2O)C(O)C(O)C1O` (stereo not given in full), in [1], the GI50 is 2.24 µM. Also, the TGI in experiment [1] is 4.69 µM; in experiment [2] it was > 100 µM; in [3], > 43.4 µM; in experiment [4] it was 5.51 µM; in experiment [5] it was 5.68 µM; in [6], 8.39 µM. Further, the TGI in [7] was 20.8 µM; in experiment [8], 8.67 µM; in experiment [9], > 100 µM; in [10], 7.34 µM; in experiment [11], 4.09 µM; in experiment [12], 3.62 µM.

Turning to `O=[N+]([O-])c1ccccc1S(=O)(=O)N1CCCc2cc(Cl)ccc21`, the TGI is > 100 µM in experiment [1]; 76.1 µM in experiment [2]; > 75.2 µM in experiment [3]; > 100 µM in [4]; > 100 µM in experiment [5]; > 100 µM in experiment [6]. Also, the TGI in experiment [7] was > 100 µM; in [8], > 48.2 µM; in [9] it was > 100 µM; in [10], > 100 µM; in experiment [11], > 100 µM.
